Data reported in patent US6447801B1, “Anti-parasitic action of N,N-diethyl-m-toluamide (deet) and formulations that prolong its activity in the skin” (priority 1997, dated 2002).

Legend:
cercariae of S. mansoni [1] = assay: Effect of DEET on the morphology of cercariae (transmission electron microscopy); type: cell-based, Schistosoma mansoni
Description: Effect of DEET on cercarial morphology was evaluated by transmission electron microscopic studies. In these experiments, approximately 300-500 cercariae of S. mansoni suspended in 100 μl of PBS were placed in each well of a 96 well plate coated with varying concentrations of DEET (ranging from 7.5%-40%) or isopropanol (control) as described above. Samples were collected at 5, 10, 20, 30 and 240 minutes after exposure to DEET and processed for transmission electron microscopy as described in Salafsky et al., Exper. Parasitol., 67:116-127 (1988). Briefly, cercariae collected from each tube were transferred to fresh tubes containing PBS plus 10% fetal bovine serum (Sigma Chemical Co.) and concentrated into a pellet by centrifugation at 500 rpm (300 g) for 5 minutes. The pellet was then fixed overnight at 4° C. in a fixative containing 3% gluteraldehyde, and 1% formaldehyde in a 0.1 M phosphate buffer (pH 7.2). After one hour post fixation in 1% osmium tetroxide the pellet were dehydrated through a graded acetone series and embedded in epon resin. Sections were examined in a Hitachi H-500 transmission electron microscope after staining with uranyl acetate and lead citrate.

cercariae of S. mansoni [2] = assay: Effect of DEET applied to the skin after exposure to S. mansoni infection in mice; type: in vivo, Schistosoma mansoni
Text: For in vivo animal experiments, male mice of the CD1 strain, weighing approximately 18-20 grams, purchased from Charles River Laboratories (Wilmington, Mass.) were used. The use of animals in these experiments were in compliance with the Animal Welfare Act and other Federal statues and regulations relating to animals as stated in the National Institute of Health publication: Guide for the Care and Use of Laboratory Animals. Mice were infected individually with schistosome cercariae via either tail skin or via shaved abdominal skin. For infection via tail skin, the mouse was restrained in a cage and the tail was dipped for 60 minutes in a tube containing 250-300 ^35S-labeled cercariae suspended in 10 ml of distilled water at room temperature. […]
To determine skin penetration and worm establishment, whole tail skin or the area of abdominal skin that was exposed to the cercariae as described above and the lungs were removed from each mouse on day seven after infection and processed for compressed organ autoradiography techniques as described previously (Li J W et al., Parasitology International 46: 55-65 (1997)). […] Following autoradiographic development, the dark spots (which represent reduced silver foci on film) were counted and percent worm establishment was calculated (number of spots/total number of cercariae used for infection X 100). […]

cercariae of S. mansoni [3] = assay: Wash-off tests with DEET and Lipodeet in schistosomiasis (mice); type: in vivo, Schistosoma mansoni
Description: After bathing, mice were allowed to dry completely. The abdominal skin of these mice was then exposed to 150 cercariae of S. mansoni labeled with ^35S-methionine. Degree of protection conferred by Lipodeet and DEET after the wash off treatment was evaluated by monitoring the entry of parasites into the skin by compressed organ autoradiography techniques as described earlier (Li et. al. Parasitology International 46:55-65, 1997).

[4] = Absorption through skin: DEET level in plasma by HPLC; type: in vivo, mice; settings: 200 μl of 60% on abdominal skin
Description: Briefly, the Bond-Elute cartridges were activated by washing with two ml of HPLC grade acetonitrile (Sigma chemicals Co., St. Louis, Mo.) followed by two ml of deionized, degassed filtered water. A low vacuum (<0.5 in Hg) was applied for the wash using a Vac-Elute manifold (Varian Analytical Supplies Co.). […] Hg). The cartridge was then washed with three mls. of acetonitrile-ammoniumacetate (pH 4.5, 0.03 M, at 40:60 V:V) under low vacuum (<0.5 in. Hg). The eluant was then injected directly onto columns (ODS-1, 250×4.6 mm, Alltech Co., Deerfield, Ill.) for HPLC analysis (Waters, Division of Millipore, Milford, Mass.). Chromatographic conditions used for HPLC analysis is as follows: Mobil phase: acetonitrile-ammoniumacetate (pH 4.5, 0.03M, at 36:64 v:v), flow rate 1.0 ml/min, UV detection at 220 nm. Sensitivity was set at 0.01AUFS. […].

[5] = Disposition of 14C-DEET and 14C-Lipodeet after skin application (skin, blood, urine, bedding radioactivity)
Description: In this series of experiments, 11.472 mg of ^14C-DEET of ^14C-Lipodeet (in 100 μl) was applied to 5 cm^2 area of the mice abdominal skin. At different time points (15 min, 30 min, 60 min, 2 hrs., 4 hrs., 24 hrs., 48 hrs. and 72 hrs.) after application, the whole area of skin where the lipodeet had been applied was collected, underlying tissue removed and the radioactivity measured in a Beckman β-counter. Samples of blood and urine were also collected at these time points from each mouse to measure the radioactivity (n=10 for each time point). […] In this study, we made observations only up to 72 hrs. […] There are two possibilities, (1) substantial quantities of both DEET and Lipodeet are absorbed systemically through the skin within 24 hrs., or (2) both the chemicals are lost in the bedding due to direct contact of the applied area to the bedding materials. The first hypothesis was tested by measuring ^14C levels in the blood and urine in these animals.

SMILES: CCN(CC)C(=O)c1cccc(C)c1 [DEET, N,N-diethyl-m-toluamide]
- ultrastructural changes of cercariae (cercariae of S. mansoni [1]; 7.5% DEET, evident as early as five minutes post-exposure): ultrastructural changes of two types were observed
- lysis of cercariae (cercariae of S. mansoni [1]; 240 min after exposure to DEET): Frank lysis of cercariae
- protection (cercariae of S. mansoni [2]; 40% DEET applied 4 hrs or more after infection): no protection
- effectiveness in preventing the infection (cercariae of S. mansoni [2]; 40% DEET applied within 30 min after exposure to cercariae): 100%
- protective effect after wash-off (cercariae of S. mansoni [3]; 10%, five minutes of exposure to water, irrespective of water temperature): significantly (p<0.01) abolished the protective effects of DEET
- protective effect after wash-off (cercariae of S. mansoni [3]; concentration increased to 20%): slightly improved the retention of protective ability of DEET
- DEET present in the plasma ([4]; 15 min): 11.6 mg
- DEET present in the plasma, percent ([4]; 15 min): 9.7%
- DEET present in the plasma ([4]; 30 min): 5.3 mg
- DEET present in the plasma, percent ([4]; 30 min): 4.4%
- DEET present in the plasma ([4]; 60 min): ~0.182 mg
- DEET present in the plasma, percent ([4]; 60 min): 0.15%
- amount in the superficial layers of the skin ([5]; 11.472 mg on 5 cm^2, by 24 hrs): nearly all of the DEET applied to the skin has been cleared from the superficial layers
- lost from the skin ([5]; during 4 to 24 hrs after application): 100%
